Several values for one entry are separate records, joined by “and”; a condition that tells them apart may be missing. Equal entries are not always repeated. Structures can show the parent of a compound that is named as a salt.
Experiments:
Top1 = target: T1, Top1 (Homo sapiens, UniProt P11387); experiment: Top1-mediated DNA cleavage assay; format: biochemical; settings: score based on the activity of 1 μM 1 (camptothecin); tested at 0.1, 1, 10, 100 μM
T1 sequence (P11387 1-765): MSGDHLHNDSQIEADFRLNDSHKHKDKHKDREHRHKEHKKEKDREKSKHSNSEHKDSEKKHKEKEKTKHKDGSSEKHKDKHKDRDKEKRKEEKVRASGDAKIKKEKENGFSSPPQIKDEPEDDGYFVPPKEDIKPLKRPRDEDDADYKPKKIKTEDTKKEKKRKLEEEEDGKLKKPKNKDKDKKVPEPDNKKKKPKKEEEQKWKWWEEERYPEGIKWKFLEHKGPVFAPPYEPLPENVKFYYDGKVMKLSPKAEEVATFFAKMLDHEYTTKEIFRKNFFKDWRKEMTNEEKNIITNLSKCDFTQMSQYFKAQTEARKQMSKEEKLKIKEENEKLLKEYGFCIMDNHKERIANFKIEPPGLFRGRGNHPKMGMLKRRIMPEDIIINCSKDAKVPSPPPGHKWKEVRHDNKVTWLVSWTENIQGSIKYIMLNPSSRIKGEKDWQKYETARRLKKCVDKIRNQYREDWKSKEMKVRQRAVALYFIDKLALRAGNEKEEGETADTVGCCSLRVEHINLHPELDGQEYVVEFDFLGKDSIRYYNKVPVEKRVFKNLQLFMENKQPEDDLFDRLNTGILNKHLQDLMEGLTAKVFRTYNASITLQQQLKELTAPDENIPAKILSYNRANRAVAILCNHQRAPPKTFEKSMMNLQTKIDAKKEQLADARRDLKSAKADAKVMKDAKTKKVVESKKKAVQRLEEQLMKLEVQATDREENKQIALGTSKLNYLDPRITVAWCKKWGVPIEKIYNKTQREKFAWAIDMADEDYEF
Description: Approximately 2 nM radiolabeled DNA substrate was incubated with recombinant Top in 20 μL of reaction buffer [10 mM Tris-HCl (pH 7.5), 50 mM KCl, 5 mM MgCl2, 0.1 mM EDTA, and 15 μg/mL BSA] at 25° C. for 20 min in the presence of various concentrations of test compounds. […] Aliquots of each reaction mixture were subjected to 20% denaturing PAGE.
The Top1-mediated DNA cleavage assay was used to measure Top1 inhibitory activity. This assay measures the ability of the compound to stabilize DNA cleavage in a 3′-[^32P]-labeled DNA substrate via Top1 poisoning.

recombinant human TDP2 = target: T2, recombinant human TDP2 (Homo sapiens, UniProt O95551); experiment: Recombinant TDP2 assay; format: biochemical; settings: recombinant human TDP2, gel-based; read-out: TDP2: IC50 values for the inhibition of TDP2
T2 sequence (O95551 1-362): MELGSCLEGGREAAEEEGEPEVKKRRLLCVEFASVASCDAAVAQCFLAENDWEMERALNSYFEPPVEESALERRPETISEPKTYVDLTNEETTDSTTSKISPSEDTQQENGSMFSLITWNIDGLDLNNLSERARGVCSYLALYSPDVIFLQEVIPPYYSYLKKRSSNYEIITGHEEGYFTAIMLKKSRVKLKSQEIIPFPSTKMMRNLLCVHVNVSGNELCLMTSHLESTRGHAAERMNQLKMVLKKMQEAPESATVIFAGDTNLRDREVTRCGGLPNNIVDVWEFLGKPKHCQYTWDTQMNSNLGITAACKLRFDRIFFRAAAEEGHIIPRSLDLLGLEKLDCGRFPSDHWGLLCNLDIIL
Source text: Reactions were terminated and treated similarly to recombinant TDP1 reactions.
TDP2, as opposed to TDP1, cleaves the phosphotyrosyl linkage in 5′-phosphotyrosyl-DNA oligonucleotides.

recombinant TDP1 = recombinant TDP1 (Homo sapiens, UniProt Q9NUW8); experiment: Recombinant TDP1 assay; format: biochemical; settings: recombinant TDP1, gel-based; read-out: TDP1: IC50 values for the inhibition of TDP1
Description: A 5′-[^32P]-labeled single-stranded DNA oligonucleotide containing a 3′-phosphotyrosine (N14Y) was incubated at 1 nM with 10 pM recombinant TDP1 in the absence or presence of inhibitor for 15 min at room temperature in the LMP1 assay buffer containing 50 mM Tris HCl, pH 7.5, 80 mM KCl, 2 mM EDTA, 1 mM DTT, 40 μg/mL BSA, and 0.01% Tween-20^18. […] Gels were dried and exposed to a PhosphorImager screen (GE Healthcare). Gel images were scanned using a Typhoon 8600 (GE Healthcare), and densitometry analyses were performed using ImageQuant software (GE Healthcare).
TDP1 is involved in the repair of DNA damage that results from the action of Top1 poisons, which induce the formation of DNA-protein adducts that include a 3′-phosphotyrosyl linkage. The TDP1 inhibition assay assesses a test agent's ability to inhibit the enzyme-induced cleavage of a 5′-^32P, 3′-phosphotyrosyl-DNA oligonucleotide, called N14Y. Cleavage of the phosphodiester bond between the 3′-phosphate and tyrosine releases […] from the DNA oligonucleotide. The enzyme-processed DNA oligonucleotide lacking its 3′-phosphotyrosyl moiety is designated N14P. A schematic representation of the assay and a representative gel are shown in FIG. 2, and the TDP1 screening results are listed in Table 1.

[1] = test system: 60 human cancer cell lines; experiment: NCI-60 single-dose cytotoxicity assay; format: cell-based; settings: mean-graph midpoint of percent growth of 60 human cancer cell lines, 10 μM drug, 48 h, relative to no-drug control and time zero
Description: The new indenoisoquinolines were evaluated for cancer cell growth inhibitory activities. The National Cancer Institute's NCI-60 cytotoxicity assay measures the ability of test agents to inhibit the growth of approximately 60 different cancer cell lines. In the initial single-dose assay, cells are treated with a 10 μM dose of test agent. The growth of treated cells versus untreated cells is then compared. If a test agent induces a sufficiently low mean growth percent, it is promoted to five-dose testing to determine a mean graph midpoint (MGM) GI50 value. In five-dose testing, cells are treated with test agent concentrations ranging from 10^−8 to 10^−4 M. The concentration required to achieve 50% growth inhibition in a particular cell line is calculated. In situations in which this value is greater than 100 μM or less than 0.01 μM, it is recorded as 100 μM and 0.01 μM, respectively. The values for each of the tested cell lines are averaged to obtain a mean graph midpoint (MGM) GI50 value. MGM GI50 values are often, but not always, determined from two separate rounds (Table 1).

recombinant TDP1, sequence (Q9NUW8 whole entry, species assumed): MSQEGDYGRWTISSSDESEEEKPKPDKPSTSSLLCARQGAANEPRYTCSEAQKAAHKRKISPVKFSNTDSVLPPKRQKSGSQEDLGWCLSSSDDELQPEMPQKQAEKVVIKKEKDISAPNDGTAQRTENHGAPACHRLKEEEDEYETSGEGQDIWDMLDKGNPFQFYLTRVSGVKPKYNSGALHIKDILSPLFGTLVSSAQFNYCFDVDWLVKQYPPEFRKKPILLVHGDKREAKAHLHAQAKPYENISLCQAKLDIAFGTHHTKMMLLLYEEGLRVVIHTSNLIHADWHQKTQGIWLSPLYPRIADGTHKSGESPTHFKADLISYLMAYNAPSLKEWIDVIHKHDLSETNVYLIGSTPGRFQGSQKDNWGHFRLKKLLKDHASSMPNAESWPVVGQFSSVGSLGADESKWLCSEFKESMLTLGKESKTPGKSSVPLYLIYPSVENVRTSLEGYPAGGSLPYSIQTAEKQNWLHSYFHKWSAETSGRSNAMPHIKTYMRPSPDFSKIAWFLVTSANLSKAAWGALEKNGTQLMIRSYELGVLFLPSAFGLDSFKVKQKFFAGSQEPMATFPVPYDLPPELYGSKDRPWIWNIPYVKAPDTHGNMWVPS

Structure (SMILES) | Top 1: compound-induced DNA cleavage due to Top1 poisoning (Top1) | IC50 (recombinant human TDP2) [µM] | IC50 (recombinant TDP1) | Mean Growth % [1] [%] | melting point [°C]
CN(C)CCCn1c2c(c3ncccc3c1=O)C(=O)c1ccccc1-2 [Compound 44, 1-Aza-5,6-dihydro-6-(3-(dimethylamino)propyl)-5,11-dioxo-indeno[1,2-c]isoquinoline] | ++ (++, between 50 and 75% activity) | > 111 | 90 µM | 44.4 | 187 to 188
O=C1c2ccccc2-c2c1c1ccncc1c(=O)n2C[C@H](O)CO [Compound 50, (2′S)-3-Aza-5,6-dihydro-6-(2′,3′-dihydroxypropyl)-5,11-dioxo-indeno[1,2-c]isoquinoline] | ++ (++, between 50 and 75% activity) | – | – | – | 237 to 238
O=C1c2ccccc2-c2c1c1ccncc1c(=O)n2CCCn1ccnc1 [Compound 42, 3-Aza-5,6-dihydro-6-(3-(1H-imidazol-1-yl)propyl)-5,11-dioxo-11H-indeno[1,2-c]isoquinoline] | + (+, between 20 and 50%activity) | > 111 | > 111 µM | 47.5 | 251 to 252
NCCCn1c2c(c3cnccc3c1=O)C(=O)c1ccccc1-2 [Compound 58, 6-(3-Aminopropyl)-2-aza-5,6-dihydro-5,11-dioxo-indeno[1,2-c]isoquinoline Dihydrochloride] | ++ (++, between 50 and 75% activity) | ~111 | 19 µM and 30 µM | – | –
O=C1c2ccccc2-c2c1c1cccnc1c(=O)n2CCCN1CCOCC1 [Compound 39, 4-Aza-5,6-dihydro-6-(3-morpholinopropyl)-5,11-dioxo-indeno[1,2-c]isoquinoline] | +++ (+++, between 75 and 95% activity) | > 111 | > 111 µM | 42.9 | 177 to 178
NCCCn1c2c(c3ccncc3c1=O)C(=O)c1ccccc1-2 (as salt: hydrochloride) [Compound 59, 6-(3-Aminopropyl)-3-aza-5,6-dihydro-5,11-dioxo-indeno[1,2-c]isoquinoline Dihydrochloride] | – | – | – | – | 253 to 254
O=C1c2ccccc2-c2c1c1cccnc1c(=O)n2CCCn1ccnc1 [Compound 43, 4-Aza-5,6-dihydro-6-(3-(1H-imidazol-1-yl)propyl)-5,11-dioxo-indeno[1,2-c]isoquinoline] | +++ (+++, between 75 and 95% activity) | > 111 | > 111 µM | 49.6 | 251 to 252
O=C1c2ccccc2-c2c1c1cccnc1c(=O)n2C[C@H](O)CO [Compound 51, (2′S)-4-Aza-5,6-dihydro-6-(2′,3′-dihydroxypropyl)-5,11-dioxo-indeno[1,2-c]isoquinoline] | + (+, between 20 and 50%activity) | > 111 | > 111 µM | 61.7 | 247 to 255
O=C1c2ccccc2-c2c1c1cnccc1c(=O)n2CCCN1CCOCC1 [Compound 37, 2-Aza-5,6-dihydro-6-(3-morpholinopropyl)-5,11-dioxo-indeno[1,2-c]isoquinoline] | +++ (+++, between 75 and 95% activity) | > 111 | > 111 µM | – | 218 to 219
O=C1c2ccccc2-c2c1c1ncccc1c(=O)n2CCCN1CCOCC1 [Compound 36, 1-Aza-5,6-dihydro-6-(3-morpholinopropyl)-5,11-dioxo-indeno[1,2-c]isoquinoline] | ++ (++, between 50 and 75% activity) | > 111 | > 111 µM | 87.9 | 223 to 224
NCCCn1c2c(c3ncccc3c1=O)C(=O)c1ccccc1-2 (as salt: hydrochloride) [Compound 57, 6-(3-Aminopropyl)-1-aza-5,6-dihydro-5,11-dioxo-indeno[1,2-c]isoquinoline Dihydrochloride] | – | – | – | – | 226 to 228
O=C1c2ccccc2-c2c1c1ccncc1c(=O)n2CCCN1CCOCC1 [Compound 38, 3-Aza-5,6-dihydro-6-(3-morpholinopropyl)-5,11-dioxo-11H-indeno[1,2-c]isoquinoline] | ++ (++, between 50 and 75% activity) | > 111 | > 111 µM | – | 210 to 211
NCCCn1c2c(c3ncccc3c1=O)C(=O)c1ccccc1-2 [Compound 57, 6-(3-Aminopropyl)-1-aza-5,6-dihydro-5,11-dioxo-indeno[1,2-c]isoquinoline Dihydrochloride] | ++ (++, between 50 and 75% activity) | > 111 | 43 µM and 63 µM | – | –
NCCCn1c2c(c3cccnc3c1=O)C(=O)c1ccccc1-2 (as salt: hydrochloride) [Compound 60, 6-(3-Aminopropyl)-4-aza-5,6-dihydro-5,11-dioxo-indeno[1,2-c]isoquinoline Dihydrochloride] | – | – | – | – | 284 to 286
NCCCn1c2c(c3ccncc3c1=O)C(=O)c1ccccc1-2 [Compound 59, 6-(3-Aminopropyl)-3-aza-5,6-dihydro-5,11-dioxo-indeno[1,2-c]isoquinoline Dihydrochloride] | – | ~111 | 30 µM and 48 µM | – | –
NCCCn1c2c(c3cnccc3c1=O)C(=O)c1ccccc1-2 (as salt: hydrochloride) [Compound 58, 6-(3-Aminopropyl)-2-aza-5,6-dihydro-5,11-dioxo-indeno[1,2-c]isoquinoline Dihydrochloride] | – | – | – | – | 272 to 274

From US10759795B2, “Aza-A-ring indenoisoquinoline topoisomerase I poisons” (Purdue Research Foundation, priority 2016, dated 2020)
